Assay results as given in article PMC10882719 (Frontiers in Neuroscience, 2024).
Where two headings read alike, the source gives them in different places.

Columns and labels:
Type in all cases: cell-based
[1] = target: T1, 168 GPCRs (Homo sapiens, UniProt P08908); details: HTR1A
T1 construct: host or cells: PathHunter cell lines
T1 sequence (P08908 1-422): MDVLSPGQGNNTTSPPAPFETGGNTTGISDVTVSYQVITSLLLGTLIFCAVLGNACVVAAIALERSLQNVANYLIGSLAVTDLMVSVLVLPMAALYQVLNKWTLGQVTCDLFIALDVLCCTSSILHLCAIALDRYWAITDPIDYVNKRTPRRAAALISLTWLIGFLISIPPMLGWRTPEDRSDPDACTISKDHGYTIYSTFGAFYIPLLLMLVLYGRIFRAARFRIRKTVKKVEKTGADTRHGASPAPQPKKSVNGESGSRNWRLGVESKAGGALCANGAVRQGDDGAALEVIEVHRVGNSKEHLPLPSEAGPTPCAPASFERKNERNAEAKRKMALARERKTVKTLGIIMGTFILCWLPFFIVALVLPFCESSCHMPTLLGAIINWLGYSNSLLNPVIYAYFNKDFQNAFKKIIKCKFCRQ

[2] = target: T2, 168 GPCRs (Homo sapiens, UniProt P16473); details: TSHR(L)
T2 construct: host or cells: PathHunter cell lines

[3] = target: T3, 168 GPCRs (Homo sapiens, UniProt P21730)
T3 construct: host or cells: PathHunter cell lines
T3 sequence (P21730 1-350): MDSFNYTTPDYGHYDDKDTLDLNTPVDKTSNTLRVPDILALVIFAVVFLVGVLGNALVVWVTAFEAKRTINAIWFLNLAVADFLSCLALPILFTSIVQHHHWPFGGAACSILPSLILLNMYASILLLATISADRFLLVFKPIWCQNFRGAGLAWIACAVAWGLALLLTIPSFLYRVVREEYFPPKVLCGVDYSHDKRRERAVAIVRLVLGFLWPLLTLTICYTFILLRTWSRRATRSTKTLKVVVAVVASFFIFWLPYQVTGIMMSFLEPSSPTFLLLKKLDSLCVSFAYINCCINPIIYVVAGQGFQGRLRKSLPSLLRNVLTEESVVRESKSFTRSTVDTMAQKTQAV

[4] = target: T4, 168 GPCRs (Homo sapiens, UniProt P21731); details: TBXA2R
T4 construct: host or cells: PathHunter cell lines
T4 sequence (P21731 1-343): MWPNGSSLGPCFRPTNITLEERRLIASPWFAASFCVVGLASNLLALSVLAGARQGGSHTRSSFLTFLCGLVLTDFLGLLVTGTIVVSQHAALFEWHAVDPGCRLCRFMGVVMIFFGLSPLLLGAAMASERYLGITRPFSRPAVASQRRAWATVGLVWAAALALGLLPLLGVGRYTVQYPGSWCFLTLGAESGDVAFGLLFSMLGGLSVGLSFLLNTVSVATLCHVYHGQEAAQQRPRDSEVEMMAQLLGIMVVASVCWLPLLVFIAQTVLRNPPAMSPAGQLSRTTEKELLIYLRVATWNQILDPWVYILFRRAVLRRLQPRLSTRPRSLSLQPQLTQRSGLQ

[5] = target: T5, 168 GPCRs (Homo sapiens, UniProt P48039); details: MTNR1A
T5 construct: host or cells: PathHunter cell lines

[6] = target: T6, 168 GPCRs (Homo sapiens, UniProt P48145)
T6 construct: host or cells: PathHunter cell lines
T6 sequence (P48145 1-328): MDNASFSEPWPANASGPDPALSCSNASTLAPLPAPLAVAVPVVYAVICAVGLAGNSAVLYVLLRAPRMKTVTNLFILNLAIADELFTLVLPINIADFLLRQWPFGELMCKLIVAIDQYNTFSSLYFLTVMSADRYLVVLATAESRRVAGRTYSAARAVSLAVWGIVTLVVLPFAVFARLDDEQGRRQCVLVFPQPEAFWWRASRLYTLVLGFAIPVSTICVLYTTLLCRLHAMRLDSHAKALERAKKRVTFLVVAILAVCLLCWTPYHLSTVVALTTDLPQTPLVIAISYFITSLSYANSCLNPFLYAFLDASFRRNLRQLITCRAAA

[7] = target: T7, 168 GPCRs (Homo sapiens, UniProt P49190); details: PTHR2
T7 construct: host or cells: PathHunter cell lines

[8] = target: T8, 168 GPCRs (Homo sapiens, UniProt P50391); details: PPYR1
T8 construct: host or cells: PathHunter cell lines

[9] = target: T9, 168 GPCRs (Homo sapiens, UniProt Q99500)
T9 construct: host or cells: PathHunter cell lines
T9 sequence (Q99500 whole entry): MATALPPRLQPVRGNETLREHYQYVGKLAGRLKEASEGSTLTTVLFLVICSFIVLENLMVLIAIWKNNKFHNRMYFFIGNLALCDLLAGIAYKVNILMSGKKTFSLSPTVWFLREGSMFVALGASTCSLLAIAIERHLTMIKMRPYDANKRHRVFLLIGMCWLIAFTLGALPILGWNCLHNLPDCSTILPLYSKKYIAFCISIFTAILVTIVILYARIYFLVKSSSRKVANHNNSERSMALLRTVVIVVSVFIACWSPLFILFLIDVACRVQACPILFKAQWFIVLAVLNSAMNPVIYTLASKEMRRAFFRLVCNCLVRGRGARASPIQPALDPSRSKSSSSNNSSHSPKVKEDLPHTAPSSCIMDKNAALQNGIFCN

T5 sequence (P48039 whole entry): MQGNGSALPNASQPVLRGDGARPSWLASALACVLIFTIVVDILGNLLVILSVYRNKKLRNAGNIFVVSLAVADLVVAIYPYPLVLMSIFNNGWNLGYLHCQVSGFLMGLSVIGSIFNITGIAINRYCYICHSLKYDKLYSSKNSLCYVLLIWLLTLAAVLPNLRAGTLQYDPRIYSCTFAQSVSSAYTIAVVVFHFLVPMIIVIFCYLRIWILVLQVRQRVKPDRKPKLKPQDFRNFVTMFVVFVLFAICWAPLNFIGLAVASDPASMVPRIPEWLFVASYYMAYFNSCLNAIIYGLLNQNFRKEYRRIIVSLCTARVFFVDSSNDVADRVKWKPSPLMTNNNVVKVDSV
T2 sequence (P16473 21-764): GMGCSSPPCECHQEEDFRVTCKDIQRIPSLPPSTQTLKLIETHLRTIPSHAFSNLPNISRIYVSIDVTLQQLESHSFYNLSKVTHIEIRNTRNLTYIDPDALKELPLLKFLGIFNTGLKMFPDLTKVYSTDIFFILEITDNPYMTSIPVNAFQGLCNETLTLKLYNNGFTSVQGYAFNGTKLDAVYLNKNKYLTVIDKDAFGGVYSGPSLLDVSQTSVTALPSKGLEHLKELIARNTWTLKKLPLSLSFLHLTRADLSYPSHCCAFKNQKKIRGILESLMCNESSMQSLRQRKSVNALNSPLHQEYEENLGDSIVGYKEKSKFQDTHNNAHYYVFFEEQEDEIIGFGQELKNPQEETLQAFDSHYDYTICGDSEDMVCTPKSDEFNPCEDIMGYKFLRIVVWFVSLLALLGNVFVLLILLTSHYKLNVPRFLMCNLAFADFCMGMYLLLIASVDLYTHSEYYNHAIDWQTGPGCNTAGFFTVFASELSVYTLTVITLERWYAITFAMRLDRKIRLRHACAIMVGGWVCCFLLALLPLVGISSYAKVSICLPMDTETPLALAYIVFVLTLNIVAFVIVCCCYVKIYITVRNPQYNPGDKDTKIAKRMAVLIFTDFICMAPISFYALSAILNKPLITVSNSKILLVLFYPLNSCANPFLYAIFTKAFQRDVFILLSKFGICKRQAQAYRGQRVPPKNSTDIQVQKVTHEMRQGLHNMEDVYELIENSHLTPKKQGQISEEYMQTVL
T7 sequence (P49190 25-550): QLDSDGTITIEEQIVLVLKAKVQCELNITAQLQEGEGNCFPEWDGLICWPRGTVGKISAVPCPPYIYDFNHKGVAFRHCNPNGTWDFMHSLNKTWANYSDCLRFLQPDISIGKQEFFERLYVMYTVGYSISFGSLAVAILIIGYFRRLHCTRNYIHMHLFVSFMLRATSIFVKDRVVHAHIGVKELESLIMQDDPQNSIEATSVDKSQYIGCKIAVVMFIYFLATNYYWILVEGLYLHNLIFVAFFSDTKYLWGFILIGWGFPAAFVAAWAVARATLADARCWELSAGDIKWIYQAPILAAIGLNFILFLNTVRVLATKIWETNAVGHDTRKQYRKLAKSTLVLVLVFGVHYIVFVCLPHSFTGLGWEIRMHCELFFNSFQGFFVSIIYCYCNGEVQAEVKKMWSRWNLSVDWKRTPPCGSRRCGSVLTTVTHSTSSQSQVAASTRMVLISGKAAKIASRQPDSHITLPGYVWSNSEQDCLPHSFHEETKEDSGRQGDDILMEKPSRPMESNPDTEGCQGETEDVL
T8 sequence (P50391 whole entry): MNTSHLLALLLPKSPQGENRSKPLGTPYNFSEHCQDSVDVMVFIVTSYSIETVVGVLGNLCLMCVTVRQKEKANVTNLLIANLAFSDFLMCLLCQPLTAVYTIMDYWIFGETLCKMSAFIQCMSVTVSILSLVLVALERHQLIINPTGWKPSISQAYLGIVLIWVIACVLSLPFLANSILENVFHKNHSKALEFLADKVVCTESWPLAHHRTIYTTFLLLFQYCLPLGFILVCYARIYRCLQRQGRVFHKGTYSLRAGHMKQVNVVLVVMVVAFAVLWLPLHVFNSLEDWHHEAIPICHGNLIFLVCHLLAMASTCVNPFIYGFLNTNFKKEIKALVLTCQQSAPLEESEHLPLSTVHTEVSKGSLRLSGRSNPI

SMILES	% Agonist Activity ([1]; 1 uM) [%]	% Antagonist Activity ([1]; 1 uM) [%]	% Agonist Activity ([1]; 10 uM) [%]	% Antagonist Activity ([1]; 10 uM) [%]	% Agonist Activity ([2]; Conc 1 uM) [%]	% Antagonist Activity ([2]; Conc 1 uM) [%]	% Agonist Activity ([2]; Conc 10 uM) [%]	% Antagonist Activity ([2]; Conc 10 uM) [%]	% Agonist Activity ([3]; C5aR1, 1 uM) [%]	% Antagonist Activity ([3]; C5aR1, 1 uM) [%]	% Agonist Activity ([3]; C5aR1, 10 uM) [%]	% Antagonist Activity ([3]; C5aR1, 10 uM) [%]	% Agonist Activity ([4]; Conc 1 uM) [%]	% Antagonist Activity ([4]; Conc 1 uM) [%]	% Agonist Activity ([4]; Conc 10 uM) [%]	% Antagonist Activity ([4]; Conc 10 uM) [%]	% Agonist Activity ([5]; 1 uM) [%]	% Antagonist Activity ([5]; 1 uM) [%]	% Agonist Activity ([5]; 10 uM) [%]	% Antagonist Activity ([5]; 10 uM) [%]	further results
CNC(C)Cc1ccc2c(c1)OCO2 (stereo not drawn) [MDMA, 3,4-Methylenedioxy methamphetamine, reference compound]	1.1	-5.1	2.4	-0.9	-0.6	-8	2.8	-5	-1.1	-5.5	-1.1	-4.3	2.8	9.4	1.6	14.2	-9.2	18.4	-9.6	17.7	% Agonist Activity ([6]; NPBWR1, 1 uM): -10.2%; % Antagonist Activity ([6]; NPBWR1, 1 uM): -7.5%; % Agonist Activity ([6]; NPBWR1, 10 uM): -13.4%; % Antagonist Activity ([6]; NPBWR1, 10 uM): -8.5%; % Agonist Activity ([7]; Conc 1 uM): 0.2%; % Antagonist Activity ([7]; Conc 1 uM): 2.9%; % Agonist Activity ([7]; Conc 10 uM): 0.5%; % Antagonist Activity ([7]; Conc 10 uM): 7%; % Agonist Activity ([8]; Conc 1 uM): 0.3%; % Antagonist Activity ([8]; Conc 1 uM): 5.9%; % Agonist Activity ([8]; Conc 10 uM): 0.9%; % Antagonist Activity ([8]; Conc 10 uM): 6.9%; % Agonist Activity ([9]; EDG3, 1 uM): -1.7%; % Antagonist Activity ([9]; EDG3, 1 uM): 8.8%; % Agonist Activity ([9]; EDG3, 10 uM): -1.1%; % Antagonist Activity ([9]; EDG3, 10 uM): 11%
CNC(C)C(=O)c1ccc2c(c1)OCO2 (stereo not drawn) [methylone]	0.8	-5.2	-0.1	-6.4	-1.2	6.1	0.7	-6.6	-1	8.9	-1.3	5	-1.1	-5.5	-2.9	-19.7	-12.3	30.8	-11.7	7.8	% Agonist Activity ([6]; NPBWR1, 1 uM): 1.6%; % Antagonist Activity ([6]; NPBWR1, 1 uM): 17.1%; % Agonist Activity ([6]; NPBWR1, 10 uM): -1.9%; % Antagonist Activity ([6]; NPBWR1, 10 uM): 25.1%; % Agonist Activity ([7]; Conc 1 uM): -0.6%; % Antagonist Activity ([7]; Conc 1 uM): -1%; % Agonist Activity ([7]; Conc 10 uM): -0.5%; % Antagonist Activity ([7]; Conc 10 uM): -0.2%; % Agonist Activity ([8]; Conc 1 uM): -1.7%; % Antagonist Activity ([8]; Conc 1 uM): 9.5%; % Agonist Activity ([8]; Conc 10 uM): -1.2%; % Antagonist Activity ([8]; Conc 10 uM): 6.5%; % Agonist Activity ([9]; EDG3, 1 uM): -9.4%; % Antagonist Activity ([9]; EDG3, 1 uM): 25.8%; % Agonist Activity ([9]; EDG3, 10 uM): -8.6%; % Antagonist Activity ([9]; EDG3, 10 uM): 13.6%
